Assay results published in patent publication US20250326753A1, “DUAL CXCR4-BTK INHIBITORS” (X4 Pharmaceuticals, Inc., priority 2022, published 2025).
Read-outs that look alike come from different tables or passages of the source.

What was measured:
Assay type in all cases: biochemical
[1] = target: T1, BMX (Homo sapiens, UniProt P51813); assay: PanQinase kinase panel: BMX; details: read-out: INHIBITORY EFFECT @ 1 uM: BMX
T1 construct: purchased Reaction Biology Europe GmbH
T1 sequence (P51813 1-675): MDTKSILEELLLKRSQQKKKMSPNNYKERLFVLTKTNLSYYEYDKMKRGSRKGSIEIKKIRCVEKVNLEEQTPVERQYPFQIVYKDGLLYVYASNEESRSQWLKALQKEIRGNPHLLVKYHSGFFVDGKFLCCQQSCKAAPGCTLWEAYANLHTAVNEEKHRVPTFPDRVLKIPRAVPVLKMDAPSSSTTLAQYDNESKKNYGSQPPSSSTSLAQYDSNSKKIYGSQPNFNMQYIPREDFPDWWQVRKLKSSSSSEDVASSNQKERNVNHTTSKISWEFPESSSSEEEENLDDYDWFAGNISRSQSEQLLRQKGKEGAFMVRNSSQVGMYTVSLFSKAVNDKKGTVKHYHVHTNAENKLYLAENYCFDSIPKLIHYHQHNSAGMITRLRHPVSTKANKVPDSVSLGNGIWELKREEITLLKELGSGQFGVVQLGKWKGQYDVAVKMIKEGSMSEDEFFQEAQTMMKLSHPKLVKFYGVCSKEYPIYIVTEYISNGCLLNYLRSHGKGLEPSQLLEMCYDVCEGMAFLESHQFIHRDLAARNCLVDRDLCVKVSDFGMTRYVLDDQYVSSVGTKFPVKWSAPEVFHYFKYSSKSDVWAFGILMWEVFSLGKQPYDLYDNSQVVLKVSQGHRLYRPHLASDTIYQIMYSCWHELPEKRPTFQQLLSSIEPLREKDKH
Protocol: (§1) Screening procedures were performed in accordance with the company's on-line protocol [accessed on-line Mar.
(§2) For each kinase, the median value of the cpm of three wells was defined as “low control” (n=3). This value reflects unspecific binding of radioactivity to the plate in the absence of a protein kinase but in the presence of the substrate. Additionally, for each kinase the median value of the cpm of three other wells was taken as the “high control,” i.e. full activity in the absence of any inhibitor (n=3). The difference between high and low control of each enzyme was taken as 100% activity.
As part of the data evaluation the low control of each kinase was subtracted from the high control value as well as from their corresponding “compound values”.

[2] = target: T2, ARAF YDYD (Homo sapiens, UniProt P10398, Y301D/Y302D); assay: PanQinase kinase panel: ARAF YDYD; details: read-out: INHIBITORY EFFECT @ 1 uM: ARAF YDYD
T2 construct: purchased Reaction Biology Europe GmbH
T2 sequence (P10398 1-606 Y301D/Y302D): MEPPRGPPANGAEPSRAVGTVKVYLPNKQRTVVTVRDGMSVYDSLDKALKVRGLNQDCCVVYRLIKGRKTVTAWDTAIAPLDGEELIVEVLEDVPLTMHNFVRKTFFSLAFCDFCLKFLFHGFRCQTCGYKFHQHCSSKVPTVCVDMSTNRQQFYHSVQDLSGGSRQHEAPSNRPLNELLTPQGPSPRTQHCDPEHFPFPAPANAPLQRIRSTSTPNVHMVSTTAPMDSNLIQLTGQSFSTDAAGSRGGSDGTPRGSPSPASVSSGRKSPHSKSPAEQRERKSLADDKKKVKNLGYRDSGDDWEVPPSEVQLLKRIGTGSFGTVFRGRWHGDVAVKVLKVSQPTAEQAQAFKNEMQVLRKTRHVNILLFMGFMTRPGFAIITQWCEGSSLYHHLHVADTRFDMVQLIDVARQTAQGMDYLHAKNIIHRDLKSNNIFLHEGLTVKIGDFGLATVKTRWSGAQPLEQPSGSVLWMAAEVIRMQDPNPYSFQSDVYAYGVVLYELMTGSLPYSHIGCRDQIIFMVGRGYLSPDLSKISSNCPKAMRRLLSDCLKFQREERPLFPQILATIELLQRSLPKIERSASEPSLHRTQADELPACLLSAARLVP
Protocol: as §1, §2
(§3) As part of the data evaluation the low control of each kinase was subtracted from the high control value as well as from their corresponding “compound values”. The residual activity (in %) for each compound well was calculated by using the following formula: Res. Activity (%)=100×[(signal of compound−low control)/(high control−low control)].

[3] = target: T3, FGFR3 (Homo sapiens, UniProt P22607); assay: PanQinase kinase panel: FGFR3; details: read-out: INHIBITORY EFFECT @ 1 uM: FGFR3
T3 construct: purchased Reaction Biology Europe GmbH
Protocol: as §1, §2, §3

[4] = target: T4, LCK (Homo sapiens, UniProt P06239); assay: PanQinase kinase panel: LCK; details: read-out: INHIBITORY EFFECT @ 1 uM: LCK
T4 construct: purchased Reaction Biology Europe GmbH
Protocol: as §1, §2, §3

[5] = target: T5, RAF1 YDYD (Homo sapiens, UniProt P04049, Y340D/Y341D); assay: PanQinase kinase panel: RAF1 YDYD; details: read-out: INHIBITORY EFFECT @ 1 uM: RAF1 YDYD
T5 construct: purchased Reaction Biology Europe GmbH
Protocol: as §1, §2, §3

[6] = target: T6, AuroraA (Homo sapiens, UniProt O14965); assay: PanQinase kinase panel: AuroraA
T6 construct: purchased Reaction Biology Europe GmbH
T6 sequence (O14965 1-403): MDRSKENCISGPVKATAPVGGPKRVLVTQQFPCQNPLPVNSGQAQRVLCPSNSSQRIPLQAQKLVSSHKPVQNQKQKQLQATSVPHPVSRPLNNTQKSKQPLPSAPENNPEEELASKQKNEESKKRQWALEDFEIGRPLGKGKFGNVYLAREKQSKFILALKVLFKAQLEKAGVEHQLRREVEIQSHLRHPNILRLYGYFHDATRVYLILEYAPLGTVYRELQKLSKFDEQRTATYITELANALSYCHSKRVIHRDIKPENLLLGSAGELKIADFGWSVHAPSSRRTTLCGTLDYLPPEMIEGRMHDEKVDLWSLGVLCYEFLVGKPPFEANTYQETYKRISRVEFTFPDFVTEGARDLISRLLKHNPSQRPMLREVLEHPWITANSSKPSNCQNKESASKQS
Protocol: as §1, §2, §3

[7] = target: T7, MAP4K5 (Homo sapiens, UniProt Q9Y4K4); assay: PanQinase kinase panel: MAP4K5; details: read-out: INHIBITORY EFFECT @ 1 uM: MAP4K5
T7 construct: purchased Reaction Biology Europe GmbH
Protocol: as §1, §2, §3

[8] = target: T8, LIMK1 (Homo sapiens, UniProt P53667); assay: PanQinase kinase panel: LIMK1
T8 construct: purchased Reaction Biology Europe GmbH
Protocol: as §1, §2, §3

[9] = at 1 μM, read-out: inhibition of AuroraA
[10] = read-out: INHIBITORY EFFECT @ 1 uM: AuroraA
[11] = read-out: INHIBITORY EFFECT @ 1 uM: LIMK1

T3 sequence (P22607 23-806): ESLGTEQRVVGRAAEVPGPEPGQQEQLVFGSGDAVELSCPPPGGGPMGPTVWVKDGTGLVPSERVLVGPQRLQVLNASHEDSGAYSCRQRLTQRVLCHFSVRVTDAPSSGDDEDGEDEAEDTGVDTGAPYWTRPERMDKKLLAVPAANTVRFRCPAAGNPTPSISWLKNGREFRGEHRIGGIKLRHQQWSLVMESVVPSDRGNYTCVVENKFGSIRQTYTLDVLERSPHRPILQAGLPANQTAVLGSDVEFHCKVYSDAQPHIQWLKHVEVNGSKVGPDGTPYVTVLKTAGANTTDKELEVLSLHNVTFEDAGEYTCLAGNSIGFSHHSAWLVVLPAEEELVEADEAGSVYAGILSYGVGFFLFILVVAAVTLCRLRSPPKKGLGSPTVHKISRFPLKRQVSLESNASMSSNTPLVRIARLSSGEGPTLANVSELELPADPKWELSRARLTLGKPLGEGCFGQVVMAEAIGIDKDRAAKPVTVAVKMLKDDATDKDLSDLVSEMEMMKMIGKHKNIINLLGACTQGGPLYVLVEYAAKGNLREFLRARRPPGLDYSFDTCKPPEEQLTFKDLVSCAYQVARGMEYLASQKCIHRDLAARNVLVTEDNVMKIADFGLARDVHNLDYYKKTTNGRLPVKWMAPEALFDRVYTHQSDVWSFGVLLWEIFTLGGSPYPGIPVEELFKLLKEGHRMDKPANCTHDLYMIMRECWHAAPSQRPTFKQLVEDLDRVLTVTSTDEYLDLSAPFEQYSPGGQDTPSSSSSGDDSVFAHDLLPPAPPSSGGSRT
T7 sequence (Q9Y4K4 whole entry): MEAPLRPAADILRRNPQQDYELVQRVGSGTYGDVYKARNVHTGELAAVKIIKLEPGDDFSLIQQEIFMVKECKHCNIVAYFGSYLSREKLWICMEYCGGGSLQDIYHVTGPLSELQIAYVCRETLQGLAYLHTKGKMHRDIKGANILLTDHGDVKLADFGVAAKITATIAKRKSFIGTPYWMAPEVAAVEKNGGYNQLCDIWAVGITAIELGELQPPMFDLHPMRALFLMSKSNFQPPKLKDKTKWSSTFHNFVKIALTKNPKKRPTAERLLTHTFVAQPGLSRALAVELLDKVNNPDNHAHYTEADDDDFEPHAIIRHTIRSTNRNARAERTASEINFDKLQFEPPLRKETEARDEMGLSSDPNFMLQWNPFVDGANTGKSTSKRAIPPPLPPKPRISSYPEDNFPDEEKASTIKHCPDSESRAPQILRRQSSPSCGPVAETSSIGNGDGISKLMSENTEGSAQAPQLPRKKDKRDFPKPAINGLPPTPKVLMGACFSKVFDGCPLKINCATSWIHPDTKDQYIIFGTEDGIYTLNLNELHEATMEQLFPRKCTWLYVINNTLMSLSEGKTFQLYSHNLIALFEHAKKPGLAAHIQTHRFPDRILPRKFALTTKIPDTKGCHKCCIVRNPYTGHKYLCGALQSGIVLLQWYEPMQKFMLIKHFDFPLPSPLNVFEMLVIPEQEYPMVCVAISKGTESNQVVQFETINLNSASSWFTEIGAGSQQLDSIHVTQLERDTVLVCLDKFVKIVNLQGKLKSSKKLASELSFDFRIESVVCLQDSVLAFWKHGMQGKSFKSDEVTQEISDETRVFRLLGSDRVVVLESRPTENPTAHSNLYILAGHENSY
T5 sequence (P04049 307-648 Y340D/Y341D limits assumed): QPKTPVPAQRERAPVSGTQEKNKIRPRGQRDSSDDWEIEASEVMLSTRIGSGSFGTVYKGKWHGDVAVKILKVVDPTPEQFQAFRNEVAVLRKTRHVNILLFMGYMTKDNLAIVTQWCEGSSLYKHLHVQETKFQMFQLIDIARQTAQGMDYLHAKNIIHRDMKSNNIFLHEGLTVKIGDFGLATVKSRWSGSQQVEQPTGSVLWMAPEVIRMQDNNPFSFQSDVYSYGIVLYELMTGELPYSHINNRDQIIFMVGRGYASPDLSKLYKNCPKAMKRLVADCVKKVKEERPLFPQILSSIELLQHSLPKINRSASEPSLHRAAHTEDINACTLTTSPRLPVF
T8 sequence (P53667 whole entry): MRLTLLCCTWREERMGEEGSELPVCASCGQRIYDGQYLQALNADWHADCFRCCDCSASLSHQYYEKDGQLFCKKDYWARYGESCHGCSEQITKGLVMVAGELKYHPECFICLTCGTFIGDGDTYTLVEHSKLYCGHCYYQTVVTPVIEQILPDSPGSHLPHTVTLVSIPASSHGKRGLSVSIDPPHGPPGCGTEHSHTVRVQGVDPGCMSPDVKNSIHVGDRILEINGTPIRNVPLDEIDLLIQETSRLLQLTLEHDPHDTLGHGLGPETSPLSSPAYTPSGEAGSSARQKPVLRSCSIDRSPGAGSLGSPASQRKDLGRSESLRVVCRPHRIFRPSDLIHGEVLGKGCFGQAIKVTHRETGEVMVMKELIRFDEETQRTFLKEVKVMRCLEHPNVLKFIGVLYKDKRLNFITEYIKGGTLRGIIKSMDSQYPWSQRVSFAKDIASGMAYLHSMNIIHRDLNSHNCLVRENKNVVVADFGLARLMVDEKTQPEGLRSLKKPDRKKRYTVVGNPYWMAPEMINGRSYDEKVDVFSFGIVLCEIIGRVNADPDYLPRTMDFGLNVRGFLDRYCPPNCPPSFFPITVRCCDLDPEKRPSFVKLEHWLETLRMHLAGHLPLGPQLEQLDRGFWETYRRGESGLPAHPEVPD
T4 sequence (P06239 whole entry): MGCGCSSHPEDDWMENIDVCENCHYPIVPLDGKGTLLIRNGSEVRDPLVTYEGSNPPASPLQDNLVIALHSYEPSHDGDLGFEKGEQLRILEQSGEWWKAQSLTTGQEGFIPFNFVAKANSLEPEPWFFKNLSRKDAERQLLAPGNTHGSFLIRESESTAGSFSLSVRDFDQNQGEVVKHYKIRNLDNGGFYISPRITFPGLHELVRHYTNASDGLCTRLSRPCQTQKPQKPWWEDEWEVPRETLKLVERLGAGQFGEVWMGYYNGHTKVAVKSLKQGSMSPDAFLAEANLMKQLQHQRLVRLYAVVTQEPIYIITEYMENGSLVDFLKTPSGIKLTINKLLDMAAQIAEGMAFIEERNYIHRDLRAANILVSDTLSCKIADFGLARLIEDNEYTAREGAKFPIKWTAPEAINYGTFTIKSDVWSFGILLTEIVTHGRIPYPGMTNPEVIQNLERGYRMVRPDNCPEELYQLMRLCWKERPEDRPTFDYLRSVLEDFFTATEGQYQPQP

Structure (SMILES)	inhibition at 1 µM [1]	inhibition at 1 µM [2]	inhibition at 1 µM [3]	inhibition at 1 µM [4]	inhibition at 1 µM [5]	inhibition at 1 µM [6, 9]	inhibition at 1 µM [6, 10]	inhibition at 1 µM [7]	inhibition at 1 µM ([8]; at 1 μM, read-out: inhibition of LIMK1)	inhibition at 1 µM [8, 11]
O=C(c1ccc(Oc2ccccc2)cc1Cl)c1c[nH]c2ncnc(N[C@@H]3CC[C@@H](CO)OC3)c12 [ARQ-531, (2-chloro-4-phenoxyphenyl) (4-(((3R,6S)-6-(hydroxymethyl)tetrahydro-2H-pyran-3-yl)amino)-7H-pyrrolo[2,3-d]pyrimidin-5-yl) methanone]	90 to 100%	70 to 89%	50 to 69%	90 to 100%	70 to 89%	≥ 50%	50 to 69%	50 to 69%		
Cc1cccnc1[C@H]1CCC[C@@H](c2ncccc2C)N1CCN1CCN(C(=O)c2ccc(-c3cc4c(-c5cccc(NC(=O)c6ccccc6)c5C)ncnc4[nH]3)cc2)CC1 [Compound I-10, N-(3-(6-(4-(4-(2-((2R,6S)-2,6-bis(3-methylpyridin-2-yl)piperidin-1-yl)ethyl)piperazine-1-carbonyl)phenyl)-7H-pyrrolo[2,3-d]pyrimidin-4-yl)-2-methylphenyl)benzamide]	70 to 89%	< 50%	< 50%	< 50%	< 50%	50 to 89%	50 to 69%	< 50%	50 to 89%	70 to 89%
COc1ccc(F)cc1C(=O)NCc1ccc(-c2nn([C@@H](C)C(F)(F)F)c(N)c2C(N)=O)cc1 [LOXO-305, pirtobrutinib]	50 to 69%	< 50%	< 50%	< 50%	< 50%		< 50%	< 50%		< 50%
C=CC(=O)N1CCC([C@@H]2CCNc3c(C(N)=O)c(-c4ccc(Oc5ccccc5)cc4)nn32)CC1 [Zanubrutinib, (7S)-2-(4-phenoxyphenyl)-7-(1-prop-2-enoylpiperidin-4-yl)-4,5,6,7-tetrahydropyrazolo[1,5-a]pyrimidine-3-carboxamide]		< 50%	< 50%	< 50%	< 50%		< 50%	< 50%		< 50%
